We go through one compound from US12703870B2, “Regulation of root development” (UT-Battelle, LLC, priority 2023, dated 2026).

In the assay the test system is adventitious root formation in control and PtrXB38-OE micro-cuttings. The assay is described as follows: Adventitious root formation of micro-propagated cuttings in ½ MS medium with chemical treatment. Type of assay: in vivo, P. tremula×P. alba ‘INRA 717-1B4’. As to the method:
Plant Growth Conditions: The tissue culture plants were maintained in ½ MS media (½ MS basal salts, 20 g/L sucrose, 1× Gamborg's B5 vitamin mixture, 0.3% Gelzan) supplemented with 0.1 mg/L IBA and grown in growth chambers (16 h:8 h, light:dark) with white fluorescent light (100 μmol m^−2 s^−1) at 22° C. To assess adventitious root development phenotype, 2-3 cm length of shoot tops from 1-month-old tissue culture saplings were excised and placed in fresh medium for root induction. Root number was counted 12 days after subculture. For chemical treatment, filter-sterilized auxin transport inhibitor naphthylphthalamic acid (NPA) and ethylene biosynthesis inhibitor aminoethoxyvinylglycine (AVG) were added in the ½ MS medium.

Each structure is given as a SMILES string.

Turning to `O=C(O)c1ccccc1C(=O)Nc1cccc2ccccc12` [NPA, naphthylphthalamic acid], the root formation result (5 μM NPA, both control and PtrXB38-OE micro-cuttings) was “completely blocked root formation”. In addition, the “promotive effect of PtrXB38 on AR formation (adventitious root number)” value (increasing NPA concentrations (0.2 μM and 1 μM, FIG. 3D), PtrXB38-OE plants) was “gradually attenuated”.
